# Several values for one entry are separate records, joined by “and”; a condition that tells them apart may be missing. Equal values may be shown once. Where a name gives a salt, the structure may show the parent alone. Read-outs that look alike come from different tables or passages of the source.
# How the values were obtained:
# rat mGlu1a receptor [1] = target: T1, rat mGlu1a receptor (Rattus norvegicus, UniProt P23385); assay: [3H]quisqualate binding to rat mGlu1a receptor CHO-dhfr− membranes (saturation, inhibition); details: inhibition of [3H]quisqualate binding, rat mGlu1a receptor CHO-dhfr− membranes; mean ± SD of 2 experiments
# T1 construct: host or cells: CHO-dhfr- cells
# rat mGlu1a receptor [2] = target: T1, rat mGlu1a receptor; assay: [3H]Compound A binding to rat mGlu1a receptor CHO-dhfr− membranes (saturation, kinetics, inhibition); details: for inhibition of [3H]Compound A binding (in words): rat mGlu1a receptor CHO-dhfr− membranes; for Ki: 2.5 nM [3H]Compound A, 30 min at 4° C., mean ± SD of 3–4 experiments
# [3] = target: T2, cloned rat mGlu1 receptor (Rattus norvegicus, UniProt P23385); assay: Signal transduction at the cloned rat mGlu1 receptor in CHO cells (glutamate-induced Ca2+ rise, FLIPR); assay type: cell-based
# T2 construct: expressed in transfected cells; host or cells: CHO cells
# [4] = inhibition of glutamate-induced intracellular Ca2+ rise, CHO cells expressing mGlu1 receptor, compounds with pIC50 between 7 and 8
# [5] = 50% inhibition of the glutamate-induced intracellular Ca2+ rise, CHO cells, FLIPR
# T2 sequence (P23385 19-1199): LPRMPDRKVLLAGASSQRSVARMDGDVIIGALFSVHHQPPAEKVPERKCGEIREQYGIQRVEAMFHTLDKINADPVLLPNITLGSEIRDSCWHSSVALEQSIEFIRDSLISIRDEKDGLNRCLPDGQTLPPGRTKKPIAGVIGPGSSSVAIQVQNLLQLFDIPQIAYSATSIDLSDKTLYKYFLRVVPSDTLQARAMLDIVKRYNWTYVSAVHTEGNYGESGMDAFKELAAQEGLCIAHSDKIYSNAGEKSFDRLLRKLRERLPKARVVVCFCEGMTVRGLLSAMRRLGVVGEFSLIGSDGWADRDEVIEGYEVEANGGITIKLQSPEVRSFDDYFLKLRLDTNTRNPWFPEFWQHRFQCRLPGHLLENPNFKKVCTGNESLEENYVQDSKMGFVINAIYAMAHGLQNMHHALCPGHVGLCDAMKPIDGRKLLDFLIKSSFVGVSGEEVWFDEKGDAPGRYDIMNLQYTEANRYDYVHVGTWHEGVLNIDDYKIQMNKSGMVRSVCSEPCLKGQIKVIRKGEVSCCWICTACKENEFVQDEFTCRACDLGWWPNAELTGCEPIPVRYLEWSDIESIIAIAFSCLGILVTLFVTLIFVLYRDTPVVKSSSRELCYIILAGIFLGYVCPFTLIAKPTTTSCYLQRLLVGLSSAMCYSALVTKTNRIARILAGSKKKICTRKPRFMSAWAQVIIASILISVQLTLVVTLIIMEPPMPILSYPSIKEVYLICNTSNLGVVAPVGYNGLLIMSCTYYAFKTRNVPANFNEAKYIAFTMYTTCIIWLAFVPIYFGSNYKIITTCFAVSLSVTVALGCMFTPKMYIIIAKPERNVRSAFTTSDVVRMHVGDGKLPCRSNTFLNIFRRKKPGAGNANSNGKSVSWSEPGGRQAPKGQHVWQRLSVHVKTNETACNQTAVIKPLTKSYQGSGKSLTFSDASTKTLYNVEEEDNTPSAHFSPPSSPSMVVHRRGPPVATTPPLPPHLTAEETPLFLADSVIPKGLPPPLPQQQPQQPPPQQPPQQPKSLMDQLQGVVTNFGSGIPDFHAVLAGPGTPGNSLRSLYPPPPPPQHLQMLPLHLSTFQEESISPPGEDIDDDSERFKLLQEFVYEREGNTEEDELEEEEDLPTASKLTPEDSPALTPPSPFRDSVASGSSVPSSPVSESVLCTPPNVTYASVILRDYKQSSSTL
# T1 sequence (P23385 19-1199): as above
smiles,measurement,setting,value
CCc1cc2cc(-c3cc4c(o3)CCCC4)ccc2nc1C (as salt: HCl) [Compound 526],melting point,,248 °C
"N[C@@]1(C(=O)O)CC[C@@H](C(=O)O)C1 [1S,3R-ACPD, reference compound]",Hill coefficient,rat mGlu1a receptor [1],0.97 ± 0.01
same,inhibition of [3H]Compound A binding (in words),rat mGlu1a receptor [2],did not inhibit
"N[C@H](C(=O)O)c1cc(O)cc(O)c1 [(S)-3,5-DHPG, reference compound]",Hill coefficient,rat mGlu1a receptor [1],0.97 ± 0.00
same,Ki,rat mGlu1a receptor [1],1.42 µM
same,Ki,rat mGlu1a receptor [2],> 1e+06 nM
same,inhibition of [3H]Compound A binding (in words),rat mGlu1a receptor [2],did not inhibit
N[C@H](C(=O)O)c1ccc(C(=O)O)c(O)c1 [(S)-4C3HPG],Hill coefficient,rat mGlu1a receptor [1],0.98 ± 0.02
same,Ki,rat mGlu1a receptor [1],1.65 ± 0.06 µM
same,Ki,rat mGlu1a receptor [2],> 1e+06 nM
"N[C@H](C(=O)O)c1ccc(C(=O)O)c(O)c1 [(S)-4C-3HPG, reference compound]",inhibition of [3H]Compound A binding (in words),rat mGlu1a receptor [2],did not inhibit
"N[C@H](C(=O)O)c1ccc(C(=O)O)cc1 [(S)-4CPG, reference compound]",Hill coefficient,rat mGlu1a receptor [1],0.98 ± 0.00
same,Ki,rat mGlu1a receptor [1],4.51 ± 0.78 µM
same,Ki,rat mGlu1a receptor [2],> 1e+06 nM
same,inhibition of [3H]Compound A binding (in words),rat mGlu1a receptor [2],did not inhibit
"NC1(C(=O)O)CCc2cc(C(=O)O)ccc21 (stereo not shown) [AIDA, reference compound]",Hill coefficient,rat mGlu1a receptor [1],0.98 ± 0.03
same,Ki,rat mGlu1a receptor [1],98.3 ± 15.4 µM
same,Ki,rat mGlu1a receptor [2],> 1e+06 nM
same,inhibition of [3H]Compound A binding (in words),rat mGlu1a receptor [2],did not inhibit
CCc1cc2cc(C(=O)CC(C)C)ccc2nc1Cl [Compound 2],melting point,,82 °C
CCc1cc2cc(C(=O)C3Cc4ccccc4C3)ccc2nc1Cl [Compound 3],melting point,,145 °C
CCc1cc2cc(C(=O)[C@H]3CC[C@@H](OC)CC3)ccc2nc1Cl [Compound 4],melting point,,123 °C
CCc1cc2cc(C(=O)C3CCC(OC)CC3)ccc2nc1C(C)=O (stereo not shown) [Compound 6],melting point,,108 °C
CCc1cc2cc(C(=O)C3CCC(OC)CC3)ccc2[nH]c1=O (stereo not shown) [Compound 9],melting point,,226 °C
CCc1cc2cc(C(=O)[C@H]3CC[C@@H](OC)CC3)ccc2nc1NCCOC [Compound 10],melting point,,115 °C
CCc1cc2cc(C(=O)C3CCC(OC)CC3)ccc2nc1C#C[Si](C)(C)C (stereo not shown) [Compound 14],IC50,[3],0.0631 µM
same,melting point,,114 °C
C#Cc1nc2ccc(C(=O)C3CCC(OC)CC3)cc2cc1CC (stereo not shown) [Compound 15],IC50,[3]; [4],0.0117 µM
same,melting point,,132 °C and 133 °C
CCc1cc2cc(C(=O)C3CCC(OC)CC3)ccc2nc1F (stereo not shown) [Compound 19],melting point,,92 °C
CCc1cc2cc(C(=O)[C@H]3CC[C@H](OC)CC3)ccc2nc1F [Compound 20],melting point,,114 °C
CCc1cc2cc(C(=O)[C@H]3CC[C@@H](OC)CC3)ccc2nc1I [Compound 21],melting point,,110 °C
CCc1cc2cc(C(=O)[C@H]3CC[C@@H](OC)CC3)ccc2nc1C#N [Compound 22],melting point,,138 °C
CCc1cnc2ccc(C(=O)C3CCC(OC)CC3)cc2c1 (stereo not shown) [Compound 25],melting point,,88 °C
CCc1cc2cc(C(=O)C3CCC(OC)CC3)ccc2nc1C (stereo not shown) [Compound 27],pIC50,[3]; [5],8.527
same,melting point,,110 °C
C=Cc1nc2ccc(C(=O)C3CCC(OC)CC3)cc2cc1CC (stereo not shown) [Compound 28],melting point,,108 °C
CCc1cc2cc(C(=O)C3CCC(OC)CC3)ccc2nc1-c1ccccc1 (stereo not shown) [Compound 29],melting point,,112 °C
CCc1cc2cc(C(=O)C3CCC(OC)CC3)ccc2nc1-c1cccs1 (stereo not shown) [Compound 30],melting point,,142 °C
CCc1cc2cc(C(=O)C3CCC(OC)CC3)ccc2nc1-c1ccsc1 (stereo not shown) [Compound 31],melting point,,113 °C
CCc1cc2cc(C(=O)C3CCC(OC)CC3)ccc2n2nnnc12 (stereo not shown) [Compound 35],IC50,[3]; [4],0.0437 µM
same,melting point,,160 °C
"Cc1cc2cc(C(=O)C3CCCCC3)ccc2[nH]c1=O [Compound 50, 6-(cyclohexylcarbonyl)-3-methyl-2(1H)-quinolinone]",melting point,,256.1 °C
CCc1cc2cc(/C(=N\N)C3CCC(OC)CC3)ccc2nc1OC (stereo not shown) [Compound 53],melting point,,110 °C
CCOC(=O)c1cc2cc(C(=O)Cc3ccccc3)ccc2nc1C [Compound 306],melting point,,136 °C
O=C(c1ccc2nc3c(cc2c1)CCS3)[C@H]1CC[C@@H](O)CC1 [Compound 421],IC50,[3]; [4],0.0115 µM
O=C(c1ccc2nc3c(cc2c1)CCS3)[C@H]1CC[C@H](O)CC1 [Compound 422],IC50,[3]; [4],0.0955 µM
COC1CCC(C(=O)c2ccc3nc4c(cc3c2)CCN4C)CC1 (stereo not shown) [Compound 423],IC50,[3]; [4],0.0129 µM
O=C(c1ccc2nc3c(cc2c1)CCS3)C1CCCCC1 [Compound 427],IC50,[3]; [5],0.00767 µM
COC1CCC(C(=O)c2ccc3nc4c(cc3c2)CCO4)CC1 (stereo not shown) [Compound 429],IC50,[3]; [5],0.00417 µM
same,IC50,[3]; [4],0.0437 µM
CC1CCC(C(=O)c2ccc3nc4c(cc3c2)CCS4)CC1 (stereo not shown) [Compound 430],IC50,[3]; [4],0.0407 µM
CC1CCC(C(=O)c2ccc3nc4c(cc3c2)CCS4)CC1 (stereo not shown) [Compound 431],IC50,[3]; [4],0.0245 µM
O=C(Cc1ccccc1)c1ccc2nc3c(cc2c1)CCCO3 [Compound 432],IC50,[3]; [5],0.00579 µM
O=C(c1ccc2nc3c(cc2c1)CCCO3)C12CC3CC(CC(C3)C1)C2 [Compound 433],IC50,[3]; [4],0.0162 µM
O=C(CCc1ccccc1)c1ccc2nc3c(cc2c1)CCCO3 [Compound 434],IC50,[3]; [4],0.0832 µM
O=C(c1ccc2nc3c(cc2c1)CCCO3)C1CC=CCC1 (stereo not shown) [Compound 435],IC50,[3]; [4],0.0417 µM
O=C(c1ccc2nc3c(cc2c1)CCCO3)C1CCc2ccccc2C1 (stereo not shown) [Compound 436],IC50,[3]; [4],0.055 µM
